In PubChem BioAssay (NCI):
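Briefly, cells in 96-well plates were exposed to five compound concentrations for 48 h, and endpoints were estimated by linear interpolation. At the TGI there is no net growth.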 Where a SMILES comes first, the peptide text is derived from it. [ ]: non-standard residue; d: D form. Ava = NCCCCC(=O)O; Mpa = O=C(O)CCS

Assays:
Experiment in all cases: DTP human tumour cell line panel, 48 h
ACHN renal = tested on: ACHN renal
DU-145 prostate = tested on: DU-145 prostate
HCC-2998 colon = tested on: HCC-2998 colon
HCT-116 colon = tested on: HCT-116 colon
HCT-15 colon = tested on: HCT-15 colon
HOP-62 NSCLC = tested on: HOP-62 NSCLC
SF-539 CNS = tested on: SF-539 CNS
T-47D breast = tested on: T-47D breast
UACC-62 melanoma = tested on: UACC-62 melanoma

SMILES	TGI (ACHN renal)	TGI (DU-145 prostate)	TGI (HCC-2998 colon)	TGI (HCT-116 colon)	TGI (HCT-15 colon)	TGI (HOP-62 NSCLC)	TGI (SF-539 CNS)	TGI (T-47D breast)	TGI (UACC-62 melanoma)
COC(=O)c1ccc(OCCn2nnc(C(=O)NN)c2C(=O)NN)cc1	> 100 µM	> 100 µM	> 100 µM	> 100 µM	> 100 µM	> 100 µM			
CC1=C[P+](c2ccccc2)(c2ccccc2)c2ccccc2O1	> 100 µM	> 100 µM		16.9 µM	> 100 µM	59 µM	31.3 µM	7.79 µM	41.1 µM
O=C1/C(=C/c2cccc([N+](=O)[O-])c2)N=C(c2ccccc2)N1c1nc2ccc(Sc3ccccc3)cc2[nH]1	> 100 µM		> 100 µM	> 100 µM	> 100 µM	> 100 µM	> 100 µM	> 100 µM	> 100 µM
CCCCn1c(=O)[nH]c2c(N)ncnc21	> 100 µM	> 100 µM	> 100 µM	> 100 µM	> 100 µM	> 100 µM	> 100 µM		> 100 µM
COC(=O)c1csc(-c2csc(CCNC(=O)OC(C)(C)C)n2)n1	> 100 µM	> 100 µM	> 100 µM	> 100 µM	> 100 µM	> 100 µM	> 100 µM		> 100 µM
CC1=NNC(=O)C1C1(C(=O)O)CC(c2c[nH]c3ccccc23)=NC(=S)N1 (stereo unspecified)	> 100 µM	> 100 µM		> 100 µM	> 100 µM	> 100 µM	67.9 µM	> 100 µM	> 100 µM
COc1ccc(N2C(=O)C3ON(Cc4ccc(CC(N)=O)cc4)C(c4c5ccccc5c(C)c5ccccc45)C3C2=O)cc1 (stereo unspecified)	77.9 µM	78 µM		56.9 µM	74.9 µM	> 100 µM		80.1 µM	> 100 µM
Nc1cc(CO)cc(Nc2c3ccccc3nc3ccccc23)c1	31.9 µM	73.1 µM		28.5 µM	34.4 µM	28.8 µM	32 µM	34.4 µM	34.5 µM
Cc1cc2ncn(CC(=O)O)c2cc1C	> 100 µM	> 100 µM		> 100 µM	> 100 µM	> 100 µM	> 100 µM	> 100 µM	> 100 µM
O=C1CCCC2=C1CC1=C(CCCC1=O)N2c1ccc(Cl)cc1	> 100 µM	> 100 µM	> 100 µM	> 100 µM	> 100 µM	> 100 µM	> 100 µM		> 100 µM
COc1cc2c(cc1OC)C(CCN)=NCC2	31.7 µM	32.9 µM		33.7 µM	38.9 µM	> 57.4 µM	16.6 µM	31.1 µM	34.4 µM
O=C(NC(=S)Nc1ccc(Br)cc1)c1ccc2c(c1)Sc1ccccc1O2	> 100 µM	> 100 µM		> 100 µM	> 100 µM	> 100 µM	> 100 µM	> 100 µM	> 100 µM
COc1ccc(-c2c(C#N)c(N)[nH]c(=S)c2C#N)cc1	> 100 µM	> 100 µM	72.2 µM	93.8 µM	> 100 µM	> 100 µM	> 100 µM		> 100 µM
O=C1OC(C(O)CO)C(C(O)CO)OC1=O (stereo unspecified)	> 10 µM		> 10 µM		> 10 µM	> 10 µM	> 10 µM	> 10 µM	> 10 µM
O=c1c(NCc2ccccc2)c(C2(c3ccccc3F)SCCCS2)c1=O	> 100 µM	> 100 µM		> 100 µM	> 100 µM	> 100 µM	> 100 µM	> 100 µM	> 100 µM
CCC(C)C(Nc1c2ccccc2nc2c(C(=O)NCCN(C)C)cccc12)C(=O)O (stereo unspecified)	> 100 µM	> 100 µM		> 100 µM	> 100 µM	> 100 µM			47.4 µM
CC(NC(=O)CCS)C(=O)NC(C)C(=O)NC(Cc1c[nH]c2ccccc12)C(=O)NC(Cc1c[nH]cn1)C(=O)NC(CO)C(=O)NC(Cc1c[nH]c2ccccc12)C(=O)NCCCCC(=O)NC(C)C(=O)NC(CCC(N)=O)C(=O)NC(CCCCN)C(=O)NC(C)C(=O)NC(CCCNC(=N)N)C(=O)NC(CCCCN)C(N)=O (stereo unspecified) ([Mpa]AAWHSW[Ava]AQKARK-NH2; configuration not given here)	> 100 µM	> 100 µM		> 100 µM	> 100 µM	> 100 µM	> 100 µM	64 µM	52 µM
CC1OC(NCCNCCNC2OC(C)C(O)C(O)C2O)C(O)C(O)C1O (stereo unspecified)	> 100 µM	> 100 µM		> 100 µM	> 100 µM	> 100 µM	> 100 µM	> 100 µM	> 100 µM
O=C1C=C(NCCc2ccc(O)c([N+](=O)[O-])c2)C(=O)c2[nH]cnc21	> 100 µM		> 100 µM	> 100 µM	> 100 µM	> 100 µM	90.5 µM	40.7 µM	40.7 µM
